Assay results reported in ChEMBL document CHEMBL1139820, “Synthesis of new 7-chloroquinolinyl thioureas and their biological investigation as potential antimalarial and anticancer agents” (Bioorg Med Chem Lett, 2007).

Experiments:
Plasmodium falciparum = test: Antiplasmodial activity against chloroquine-sensitive Plasmodium falciparum D10 in LDH reporter assay after 48 hrs; type: functional, organism-based; conditions: D10, 48 h
HeLa = test: Cytotoxicity against human HeLa cells assessed as cell survival after 7 hrs by MTT assay; type: functional, cell-based
[1] = Selectivity index, Ratio of IC50 for human HeLa cells to IC50 for Plasmodium falciparum D10; type: functional

Row | SMILES | IC50 (Plasmodium falciparum) | IC50 (HeLa) | Ratio IC50 [1]
1 | NCCNC(=S)Nc1ccnc2cc(Cl)ccc12 | 3.3 µM | 18 µM | 5.4581
2 | CCN(CC)CCCNC(=S)Nc1ccnc2cc(Cl)ccc12 | 2.2 µM | 49.2 µM | 22.355
3 | CN(C)CCCNC(=S)Nc1ccnc2cc(Cl)ccc12 | 1.2 µM | 48.5 µM | 40.375
4 | CCSc1nnc(NC(=S)Nc2ccnc3cc(Cl)ccc23)s1 | > 2.62 µM |  | 
5 | OCCNC(=S)Nc1ccnc2cc(Cl)ccc12 | > 3.5 µM | > 50 µM | >14.28
6 | S=C(Nc1ccnc2cc(Cl)ccc12)N1CCN(CC2CCCCC2)CC1 | > 2.4 µM | > 50 µM | >20.83
7 | CCN(CC)CCCC(C)Nc1ccnc2cc(Cl)ccc12 (configuration not stated) [CHLOROQUINE] |  | 9.67 µM | 

Now from value to compound, other results behind:

Row | IC50 (Plasmodium falciparum) | SMILES | IC50 (HeLa) | Ratio IC50 [1]
8 | > 3.26 µM | S=C(Nc1ccnc2cc(Cl)ccc12)N1CCNCC1 |  | 
9 | 1.8 µM | CCN1CCN(C(=S)Nc2ccnc3cc(Cl)ccc23)CC1 | > 50 µM | >27.77
10 | > 2.61 µM | S=C(Nc1ccnc2cc(Cl)ccc12)N1CCN(c2ccccc2)CC1 | 43.6 µM | 
11 | > 2.6 µM | CCOC(=O)N1CCN(C(=S)Nc2ccnc3cc(Cl)ccc23)CC1 | 40.1 µM | 
12 | > 2.5 µM | S=C(Nc1ccnc2cc(Cl)ccc12)N1CCN(Cc2ccccc2)CC1 | 28.9 µM | 
